Our source for the relative viability values is the supplement of paper PMC10307832.

Assay in all cases: relative viability (nuclei count vs DMSO), 5 days (fraction); higher = more cells survive
Compound in the assay “Wnt-C59 + Pemetrexed”: CC1=NC=CC(=C1)C2=CC=C(C=C2)CC(=O)NC3=CC=C(C=C3)C4=CN=CC=C4 [Wnt-C59] + Nc1nc2[nH]cc(CCc3ccc(C(=O)N[C@@H](CCC(=O)O)C(=O)O)cc3)c2c(=O)[nH]1 [Pemetrexed] (partner 0.2 µM)
The gist of the method:
(§1)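 Nuclei were stained with Hoechst during a one-step fixation (final 0.05% Triton X-100, 1% formaldehyde, 1 ug/ml Hoechst) carried out 5 days after dosing, then counted on 4× images. The cells, lung cancer lines in 1536-well plates, had been dosed by pin tool the day after seeding with one drug alone or a fixed anchor-drug dose plus five library-drug doses (not always all listed) in √10 steps. Relative viability is the nuclei count in treated wells divided by that in vehicle wells, and each value is the median of duplicate plates.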

Compound in the assay “Wnt-C59 + OSI-027”: CC1=NC=CC(=C1)C2=CC=C(C=C2)CC(=O)NC3=CC=C(C=C3)C4=CN=CC=C4 [Wnt-C59] + COc1cccc2cc(-c3nc([C@H]4CC[C@H](C(=O)O)CC4)n4ncnc(N)c34)[nH]c12 [OSI-027] (partner 0.5 µM)
Put shortly:
as §1

Compound in the assay “Wnt-C59 + Olaparib”: CC1=NC=CC(=C1)C2=CC=C(C=C2)CC(=O)NC3=CC=C(C=C3)C4=CN=CC=C4 [Wnt-C59] + O=C(c1cc(Cc2n[nH]c(=O)c3ccccc23)ccc1F)N1CCN(C(=O)C2CC2)CC1 [Olaparib] (partner 8 µM)
Put shortly: as §1

Compound in the assay “Wnt-C59 + Vorinostat”: CC1=NC=CC(=C1)C2=CC=C(C=C2)CC(=O)NC3=CC=C(C=C3)C4=CN=CC=C4 [Wnt-C59] + O=C(CCCCCCC(=O)Nc1ccccc1)NO [Vorinostat] (partner 1 µM)
Put shortly:
as §1

Take NCI-H2228: the relative viability with Wnt-C59 + Pemetrexed (first compound 0.001 µM) worked out at 0.306; in the assay with Wnt-C59 + Pemetrexed (first compound 0.01 µM) it was 0.334; with Wnt-C59 + Pemetrexed (first compound 0.03162 µM) it was 0.337; with Wnt-C59 + Pemetrexed (first compound 0.1 µM), 0.328; in the assay with Wnt-C59 + OSI-027 (first compound 0.001 µM) it was 0.665; in the assay with Wnt-C59 + OSI-027 (first compound 0.01 µM) it was 0.484. For the same cell line, the relative viability with Wnt-C59 + OSI-027 (first compound 0.03162 µM) worked out at 0.596; with Wnt-C59 + OSI-027 (first compound 0.1 µM), 0.548; with Wnt-C59 + Olaparib (first compound 0.001 µM), 1.04; in the assay with Wnt-C59 + Olaparib (first compound 0.01 µM) it was 0.635; with Wnt-C59 + Olaparib (first compound 0.03162 µM) it was 0.641; with Wnt-C59 + Olaparib (first compound 0.1 µM) it was 0.734. Moreover, the relative viability with Wnt-C59 + Vorinostat (first compound 0.001 µM) turned out to be 0.654; with Wnt-C59 + Vorinostat (first compound 0.01 µM), 0.657; with Wnt-C59 + Vorinostat (first compound 0.03162 µM), 0.587; with Wnt-C59 + Vorinostat (first compound 0.1 µM), 0.838.

Take NCI-H1755: the relative viability in the assay with Wnt-C59 + Pemetrexed (first compound 0.001 µM) was 0.421; with Wnt-C59 + Pemetrexed (first compound 0.01 µM), 0.407; in the assay with Wnt-C59 + Pemetrexed (first compound 0.03162 µM), 0.419; with Wnt-C59 + Pemetrexed (first compound 0.1 µM), 0.402; in the assay with Wnt-C59 + OSI-027 (first compound 0.001 µM), 0.8; with Wnt-C59 + OSI-027 (first compound 0.01 µM) it was 0.72. Moreover, the relative viability came out at 0.644 with Wnt-C59 + OSI-027 (first compound 0.03162 µM); 0.663 with Wnt-C59 + OSI-027 (first compound 0.1 µM); 0.944 with Wnt-C59 + Olaparib (first compound 0.001 µM); 0.851 with Wnt-C59 + Olaparib (first compound 0.01 µM); 0.888 with Wnt-C59 + Olaparib (first compound 0.03162 µM); 0.798 with Wnt-C59 + Olaparib (first compound 0.1 µM). In addition, the relative viability turned out to be 0.721 in the assay with Wnt-C59 + Vorinostat (first compound 0.001 µM), 0.71 with Wnt-C59 + Vorinostat (first compound 0.01 µM), 0.744 in the assay with Wnt-C59 + Vorinostat (first compound 0.03162 µM) and 0.752 with Wnt-C59 + Vorinostat (first compound 0.1 µM).

For ChaGo-K-1, the relative viability in the assay with Wnt-C59 + Pemetrexed (first compound 0.001 µM) came out at 0.258; with Wnt-C59 + Pemetrexed (first compound 0.01 µM), 0.259; with Wnt-C59 + Pemetrexed (first compound 0.03162 µM), 0.252; in the assay with Wnt-C59 + Pemetrexed (first compound 0.1 µM) it was 0.266; in the assay with Wnt-C59 + OSI-027 (first compound 0.001 µM) it was 0.512; in the assay with Wnt-C59 + OSI-027 (first compound 0.01 µM), 0.569. For the same cell line, the relative viability with Wnt-C59 + OSI-027 (first compound 0.03162 µM) turned out to be 0.525; in the assay with Wnt-C59 + OSI-027 (first compound 0.1 µM) it was 0.563; in the assay with Wnt-C59 + Olaparib (first compound 0.001 µM), 0.419; in the assay with Wnt-C59 + Olaparib (first compound 0.01 µM) it was 0.417; with Wnt-C59 + Olaparib (first compound 0.03162 µM), 0.462; with Wnt-C59 + Olaparib (first compound 0.1 µM), 0.435. Also, the relative viability with Wnt-C59 + Vorinostat (first compound 0.001 µM) was determined as 0.751; in the assay with Wnt-C59 + Vorinostat (first compound 0.01 µM), 0.781; with Wnt-C59 + Vorinostat (first compound 0.03162 µM), 0.689; with Wnt-C59 + Vorinostat (first compound 0.1 µM) it was 0.774.

As for NCI-H2170, the relative viability with Wnt-C59 + Pemetrexed (first compound 0.001 µM) was determined as 0.271; in the assay with Wnt-C59 + Pemetrexed (first compound 0.01 µM), 0.275; with Wnt-C59 + Pemetrexed (first compound 0.03162 µM), 0.253; with Wnt-C59 + Pemetrexed (first compound 0.1 µM) it was 0.274; with Wnt-C59 + OSI-027 (first compound 0.001 µM), 0.748; in the assay with Wnt-C59 + OSI-027 (first compound 0.01 µM), 0.468. Moreover, the relative viability was 0.872 with Wnt-C59 + OSI-027 (first compound 0.03162 µM); 0.491 in the assay with Wnt-C59 + OSI-027 (first compound 0.1 µM); 0.631 with Wnt-C59 + Olaparib (first compound 0.001 µM); 0.568 with Wnt-C59 + Olaparib (first compound 0.01 µM); 0.649 in the assay with Wnt-C59 + Olaparib (first compound 0.03162 µM); 0.499 in the assay with Wnt-C59 + Olaparib (first compound 0.1 µM). Further, the relative viability with Wnt-C59 + Vorinostat (first compound 0.001 µM) came out at 0.803; in the assay with Wnt-C59 + Vorinostat (first compound 0.01 µM), 0.795; in the assay with Wnt-C59 + Vorinostat (first compound 0.03162 µM) it was 0.834; with Wnt-C59 + Vorinostat (first compound 0.1 µM), 0.809.

As to NCI-H1648, the relative viability was determined as 0.615 in the assay with Wnt-C59 + Pemetrexed (first compound 0.001 µM); 0.922 with Wnt-C59 + Pemetrexed (first compound 0.01 µM); 0.81 with Wnt-C59 + Pemetrexed (first compound 0.03162 µM); 0.66 in the assay with Wnt-C59 + Pemetrexed (first compound 0.1 µM); 0.292 with Wnt-C59 + OSI-027 (first compound 0.001 µM); 0.285 in the assay with Wnt-C59 + OSI-027 (first compound 0.01 µM). Besides, the relative viability with Wnt-C59 + OSI-027 (first compound 0.03162 µM) was determined as 0.292; with Wnt-C59 + OSI-027 (first compound 0.1 µM), 0.246; with Wnt-C59 + Olaparib (first compound 0.001 µM), 1.13; with Wnt-C59 + Olaparib (first compound 0.01 µM), 0.76; with Wnt-C59 + Olaparib (first compound 0.03162 µM) it was 1.3; with Wnt-C59 + Olaparib (first compound 0.1 µM), 0.679. Moreover, the relative viability with Wnt-C59 + Vorinostat (first compound 0.001 µM) worked out at 0.421; with Wnt-C59 + Vorinostat (first compound 0.01 µM), 0.369; with Wnt-C59 + Vorinostat (first compound 0.03162 µM) it was 0.655; with Wnt-C59 + Vorinostat (first compound 0.1 µM) it was 0.364.

Turning to LXF-289, the relative viability was found to be 0.897 in the assay with Wnt-C59 + Pemetrexed (first compound 0.001 µM); 0.827 with Wnt-C59 + Pemetrexed (first compound 0.01 µM); 0.916 in the assay with Wnt-C59 + Pemetrexed (first compound 0.03162 µM); 0.91 with Wnt-C59 + Pemetrexed (first compound 0.1 µM); 0.779 in the assay with Wnt-C59 + OSI-027 (first compound 0.001 µM); 0.807 in the assay with Wnt-C59 + OSI-027 (first compound 0.01 µM). Besides, the relative viability with Wnt-C59 + OSI-027 (first compound 0.03162 µM) came out at 0.828; with Wnt-C59 + OSI-027 (first compound 0.1 µM), 0.809; in the assay with Wnt-C59 + Olaparib (first compound 0.001 µM), 1.14; with Wnt-C59 + Olaparib (first compound 0.01 µM) it was 1.09; with Wnt-C59 + Olaparib (first compound 0.03162 µM), 1.03; with Wnt-C59 + Olaparib (first compound 0.1 µM) it was 1.04. Also, the relative viability in the assay with Wnt-C59 + Vorinostat (first compound 0.001 µM) is 0.72; with Wnt-C59 + Vorinostat (first compound 0.01 µM) it was 0.766; in the assay with Wnt-C59 + Vorinostat (first compound 0.03162 µM), 0.783; with Wnt-C59 + Vorinostat (first compound 0.1 µM), 0.801.

As to LCLC-97TM1, the relative viability is 0.169 in the assay with Wnt-C59 + Pemetrexed (first compound 0.001 µM); 0.181 with Wnt-C59 + Pemetrexed (first compound 0.01 µM); 0.18 with Wnt-C59 + Pemetrexed (first compound 0.03162 µM); 0.183 in the assay with Wnt-C59 + Pemetrexed (first compound 0.1 µM); 0.581 with Wnt-C59 + OSI-027 (first compound 0.001 µM); 0.512 in the assay with Wnt-C59 + OSI-027 (first compound 0.01 µM). Moreover, the relative viability in the assay with Wnt-C59 + OSI-027 (first compound 0.03162 µM) was 0.667; in the assay with Wnt-C59 + OSI-027 (first compound 0.1 µM), 0.502; with Wnt-C59 + Olaparib (first compound 0.001 µM) it was 0.403; with Wnt-C59 + Olaparib (first compound 0.01 µM), 0.434; with Wnt-C59 + Olaparib (first compound 0.03162 µM), 0.358; with Wnt-C59 + Olaparib (first compound 0.1 µM), 0.323. Further, the relative viability was found to be 0.733 in the assay with Wnt-C59 + Vorinostat (first compound 0.001 µM), 0.765 with Wnt-C59 + Vorinostat (first compound 0.01 µM), 0.901 in the assay with Wnt-C59 + Vorinostat (first compound 0.03162 µM) and 0.706 in the assay with Wnt-C59 + Vorinostat (first compound 0.1 µM).

Turning to NCI-H2347, the relative viability with Wnt-C59 + Pemetrexed (first compound 0.001 µM) was determined as 0.46; with Wnt-C59 + Pemetrexed (first compound 0.01 µM), 0.489; with Wnt-C59 + Pemetrexed (first compound 0.03162 µM) it was 0.451; in the assay with Wnt-C59 + Pemetrexed (first compound 0.1 µM), 0.434; with Wnt-C59 + OSI-027 (first compound 0.001 µM), 0.365; in the assay with Wnt-C59 + OSI-027 (first compound 0.01 µM) it was 0.474. Moreover, the relative viability with Wnt-C59 + OSI-027 (first compound 0.03162 µM) turned out to be 0.51; in the assay with Wnt-C59 + OSI-027 (first compound 0.1 µM) it was 0.457; in the assay with Wnt-C59 + Olaparib (first compound 0.001 µM) it was 0.554; with Wnt-C59 + Olaparib (first compound 0.01 µM) it was 0.541; in the assay with Wnt-C59 + Olaparib (first compound 0.03162 µM), 0.615; in the assay with Wnt-C59 + Olaparib (first compound 0.1 µM) it was 0.593. Besides, the relative viability with Wnt-C59 + Vorinostat (first compound 0.001 µM) was determined as 0.649; with Wnt-C59 + Vorinostat (first compound 0.01 µM) it was 0.644; in the assay with Wnt-C59 + Vorinostat (first compound 0.03162 µM) it was 0.572; in the assay with Wnt-C59 + Vorinostat (first compound 0.1 µM) it was 0.717.
